pKi: −log10 of the molar value. Read-outs that look alike come from different tables or passages of the source.
How the values were obtained:
[1] = molecular target: WDR5 (Homo sapiens, UniProt P61964); assay: TR-FRET competition binding assay, displacement of 10mer-Thr-FAM MLL peptide probe from His-tagged WDR5; conditions: WDR5-His tag (residues 24-334) 2 nM; 10mer-Thr-FAM 150 nM; 60 min, room temperature; read-out: Ki for Inhibition of WDR5 by TR-FRET assay
[2] = test system: MV4:11 human cancer cell lines; assay: Cellular viability / anti-proliferative assay, CellTiter-Glo, 5 day protocol; assay type: cell-based; conditions: Homo sapiens, MV4-11, 120 h, read-out: GI50 on cellular proliferation of MV4:11 human cancer cell lines
Method in brief: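 Luminescent ATP-based viability (CellTiter-Glo) after a 5-day exposure gave GI50 via sigmoidal fitting, averaged over two or more replicates. Compounds spanned 22 two-fold steps down from 30 μM at 0.3% DMSO, on 200 MV-4-11 cells per well grown in IMDM plus 10% FBS.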

[3] = MV4:11 cells, 5 day incubation, CellTiter-Glo, mean of at least two replicates

SMILES	pKi [1]	GI50 [2, 3]	GI50 [2]
COc1ccc2c(c1)c(N1CCc3c(cc(Cn4ccnc4C)cc3-c3cn(C)nc3C(F)(F)F)C1=O)c(C)n2C [Example 80, 2-(5-Methoxy-1,2-dimethyl-1H-indol-3-yl)-7-((2-methyl-1H-imidazol-1-yl)methyl)-5-(1-methyl-3-(trifluoromethyl)-1H-pyrazol-4-yl)-3,4-dihydroisoquinolin-1(2H)-one]	10.54	61 nM	
COc1cc(OC)c2nccc(N3CCc4c(cc(Cn5ccnc5)cc4-c4cn(C)nc4C(F)(F)F)C3=O)c2c1 [Example 17, 7-((1H-Imidazol-1-yl)methyl)-2-(6,8-dimethoxyquinolin-4-yl)-5-(1-methyl-3-(trifluoromethyl)-1H-pyrazol-4-yl)-3,4-dihydroisoquinolin-1(2H)-one]	10.60	< 20 nM	
Cc1nccn1Cc1cc2c(c(-c3cn(C)nc3C(F)(F)F)c1)CCN(C1COc3ccccc31)C2=O (stereo not shown) [Example 77, 2-(2,3-Dihydrobenzofuran-3-yl)-7-((2-methyl-1H-imidazol-1-yl)methyl)-5-(1-methyl-3-(trifluoromethyl)-1H-pyrazol-4-yl)-3,4-dihydroisoquinolin-1(2H)-one]	> 10.70	583 nM	
Cc1ccc2cncc(N3CCc4c(cc(Cc5ccncc5)cc4-c4cn(C)nc4C(F)(F)F)C3=O)c2c1 [Example 59, 6′-Methyl-5-(1-methyl-3-(trifluoromethyl)-1H-pyrazol-4-yl)-7-(pyridin-4-ylmethyl)-3,4-dihydro-1H-[2,4′-biisoquinolin]-1-one]	8.85	4380 nM	
CCn1cc(-c2cc(Cn3ccnc3C)cc3c2CCN([C@H]2CCOc4ccc(OC)cc42)C3=O)c(C(F)(F)F)n1 [Example 74, (S)-5-(1-Ethyl-3-(trifluoromethyl)-1H-pyrazol-4-yl)-2-(6-methoxychroman-4-yl)-7-((2-methyl-1H-imidazol-1-yl)methyl)-3,4-dihydroisoquinolin-1(2H)-one]	> 10.70		20 nM
CCc1cc(N2CCN(C)CC2)c2nccc(N3CCc4c(cc(Cn5ccnc5)cc4-c4cn(C)nc4C(F)(F)F)C3=O)c2c1 [Example 37, 7-((1H-Imidazol-1-yl)methyl)-2-(6-ethyl-8-(4-methylpiperazin-1-yl)quinolin-4-yl)-5-(1-methyl-3-(trifluoromethyl)-1H-pyrazol-4-yl)-3,4-dihydroisoquinolin-1(2H)-one]	> 10.70	< 20 nM	
Cc1ccc2cncc(N3CCc4c(cc(Cc5cn(C)cn5)cc4-c4cn(C)nc4C(F)(F)F)C3=O)c2c1 [Example 58, 6′-Methyl-7-((1-methyl-1H-imidazol-4-yl)methyl)-5-(1-methyl-3-(trifluoromethyl)-1H-pyrazol-4-yl)-3,4-dihydro-1H-[2,4′-biisoquinolin]-1-one]	10.60	191 nM	
Cc1nccn1Cc1cc2c(c(-c3cn(C)nc3C(F)(F)F)c1)CCN(c1cn(C)c3ncc(F)cc13)C2=O [Example 82, 2-(5-Fluoro-1-methyl-1H-pyrrolo[2,3-b]pyridin-3-yl)-7-((2-methyl-1H-imidazol-1-yl)methyl)-5-(1-methyl-3-(trifluoromethyl)-1H-pyrazol-4-yl)-3,4-dihydroisoquinolin-1(2H)-one]	10.21	384 nM	
CCc1ccc2c(N3CCc4c(cc(Cn5ccnc5)cc4-c4cn(C)nc4C(F)(F)F)C3=O)cccc2n1 [Example 107]	10.68	452 nM	
COc1cc(CN2CCOCC2)c2nccc(N3CCc4c(cc(Cn5ccnc5)cc4-c4cn(C)nc4C(F)(F)F)C3=O)c2c1 [Example 133, 7-((1H-Imidazol-1-yl)methyl)-2-(6-methoxy-8-(morpholinomethyl)quinolin-4-yl)-5-(1-methyl-3-(trifluoromethyl)-1H-pyrazol-4-yl)-3,4-dihydroisoquinolin-1(2H)-one]	10.46	< 20 nM	
COc1ccc2c(c1)C(N1CCc3c(cc(Cn4ccnc4)cc3-c3cn(C)nc3C(F)(F)F)C1=O)CCC2 (stereo not shown) [Example 66, 7-((1H-Imidazol-1-yl)methyl)-2-(7-methoxy-1,2,3,4-tetrahydronaphthalen-1-yl)-5-(1-methyl-3-(trifluoromethyl)-1H-pyrazol-4-yl)-3,4-dihydroisoquinolin-1(2H)-one]	10.21	84 nM	
CCn1cc(-c2cc(Cn3ccnc3)cc3c2CCN(c2cccc4ncc(OC)cc24)C3=O)c(C(F)(F)F)n1 [Example 52, 7-((1H-Imidazol-1-yl)methyl)-5-(1-ethyl-3-(trifluoromethyl)-1H-pyrazol-4-yl)-2-(3-methoxyquinolin-5-yl)-3,4-dihydroisoquinolin-1(2H)-one]	10.55	62 nM	
COc1cc(OC)c2c(c1)c(N1CCc3c(cc(Cn4ccnc4)cc3-c3cn(C)nc3C(F)(F)F)C1=O)cn2C [Example 85, 7-((1H-Imidazol-1-yl)methyl)-2-(5,7-dimethoxy-1-methyl-1H-indol-3-yl)-5-(1-methyl-3-(trifluoromethyl)-1H-pyrazol-4-yl)-3,4-dihydroisoquinolin-1(2H)-one]	> 10.70	92 nM	

The next lines start with results.

pKi [1]	GI50 [2, 3]	SMILES	GI50 [2]
> 10.70	21 nM	CCc1cc(C(=O)NCC2CN(C(C)=O)C2)c2nccc(N3CCc4c(cc(Cn5ccnc5)cc4-c4cn(C)nc4C(F)(F)F)C3=O)c2c1 [Example 218, 4-(7-((1H-Imidazol-1-yl)methyl)-5-(1-methyl-3-(trifluoromethyl)-1H-pyrazol-4-yl)-1-oxo-3,4-dihydroisoquinolin-2(1H)-yl)-N-((1-acetylazetidin-3-yl)methyl)-6-ethylquinoline-8-carboxamide]	
10.54	< 20 nM	COc1cc2c(N3CCc4c(cc(Cn5ccnc5)cc4-c4cn(C)nc4C(F)(F)F)C3=O)cc(C)cc2nc1C [Example 155, 7-((1H-Imidazol-1-yl)methyl)-2-(3-methoxy-2,7-dimethylquinolin-5-yl)-5-(1-methyl-3-(trifluoromethyl)-1H-pyrazol-4-yl)-3,4-dihydroisoquinolin-1(2H)-one]	
> 10.70	< 20 nM	COc1cc(C2CCN(C)CC2)c2nc(C)cc(N3CCc4c(cc(Cn5ccnc5)cc4-c4cn(C)nc4C(F)(F)F)C3=O)c2c1 [Example 157, 7-((1H-Imidazol-1-yl)methyl)-2-(6-methoxy-2-methyl-8-(1-methylpiperidin-4-yl)quinolin-4-yl)-5-(1-methyl-3-(trifluoromethyl)-1H-pyrazol-4-yl)-3,4-dihydroisoquinolin-1(2H)-one]	
10.64	23 nM	COc1cc(-c2cn[nH]c2)c2nc(C)cc(N3CCc4c(cc(Cn5ccnc5)cc4-c4cn(C)nc4C(F)(F)F)C3=O)c2c1 [Example 201, 7-((1H-imidazol-1-yl)methyl)-2-(6-methoxy-2-methyl-8-(1H-pyrazol-4-yl)quinolin-4-yl)-5-(1-methyl-3-(trifluoromethyl)-1H-pyrazol-4-yl)-3,4-dihydroisoquinolin-1(2H)-one]	
> 10.70	< 20 nM	CCc1cc(C(=O)NC2CCN(C)CC2)c2nccc(N3CCc4c(cc(Cn5ccnc5)cc4-c4cn(C)nc4C(F)(F)F)C3=O)c2c1 [Example 186, 4-(7-((1H-Imidazol-1-yl)methyl)-5-(1-methyl-3-(trifluoromethyl)-1H-pyrazol-4-yl)-1-oxo-3,4-dihydroisoquinolin-2(1H)-yl)-6-ethyl-N-(1-methylpiperidin-4-yl)quinoline-8-carboxamide]	
10.44	< 20 nM	COc1cc(CN2CCC(OC)CC2)c2nccc(N3CCc4c(cc(Cn5ccnc5)cc4-c4cn(C)nc4C(F)(F)F)C3=O)c2c1 [Example 142, 7-((1H-Imidazol-1-yl)methyl)-2-(6-methoxy-8-((4-methoxypiperidin-1-yl)methyl)quinolin-4-yl)-5-(1-methyl-3-(trifluoromethyl)-1H-pyrazol-4-yl)-3,4-dihydroisoquinolin-1(2H)-one]	
> 10.70	< 20 nM	CCc1cc(COC2CCOCC2)c2nccc(N3CCc4c(cc(Cn5ccnc5)cc4-c4cn(C)nc4C(F)(F)F)C3=O)c2c1 [Example 182, 7-((1H-Imidazol-1-yl)methyl)-2-(6-ethyl-8-(((tetrahydro-2H-pyran-4-yl)oxy)methyl)quinolin-4-yl)-5-(1-methyl-3-(trifluoromethyl)-1H-pyrazol-4-yl)-3,4-dihydroisoquinolin-1(2H)-one]	
> 10.70	23 nM	CCc1cc(CNC(C)=O)c2nccc(N3CCc4c(cc(Cn5ccnc5)cc4-c4cn(C)nc4C(F)(F)F)C3=O)c2c1 [Example 240, N-((4-(7-((1H-Imidazol-yl)methyl)-5-(1-methyl-3-(trifluoromethyl)-1H-pyrazol-4-yl)-1-oxo-3,4-dihydroisoquinolin-2(1H)-yl)-6-ethylquinolin-8-yl)methyl)acetamide]	
10.52	< 20 nM	CCc1cc(N2CCN3CCOC[C@@H]3C2)c2nc(C)cc(N3CCc4c(cc(Cn5ccnc5)cc4-c4cn(C)nc4C(F)(F)F)C3=O)c2c1 [Example 134, (S)-7-((1H-imidazol-1-yl)methyl)-2-(6-ethyl-8-(hexahydropyrazino[2,1-c][1,4]oxazin-8(1H)-yl)-2-methylquinolin-4-yl)-5-(1-methyl-3-(trifluoromethyl)-1H-pyrazol-4-yl)-3,4-dihydroisoquinolin-1(2H)-one]	
10.70	< 20 nM	COc1cnc2cc(C)cc(N3CCc4c(cc(Cn5ccnc5)cc4-c4cn(C)nc4C(F)(F)F)C3=O)c2c1 [Example 202, 7-((1H-Imidazol-1-yl)methyl)-2-(3-methoxy-7-methylquinolin-5-yl)-5-(1-methyl-3-(trifluoromethyl)-1H-pyrazol-4-yl)-3,4-dihydroisoquinolin-1(2H)-one]	

From patent US12692249B2, “WDR5 inhibitors and modulators” (Vanderbilt University, priority 2019, dated 2026)
